Test results published in PMC5376326, “Inhibition of ANO1 by luteolin and its cytotoxicity in human prostate cancer PC-3 cells” (PLoS ONE, 2017).

Legend:
[1] = target: T1, human ANO1 (abc) (Homo sapiens, UniProt Q5XXA6, DEL476-501); assay: YFP fluorescence quenching assay (iodide influx) in FRT cells expressing human ANO1; assay type: cell-based; settings: FRT cells expressing ANO1 and YFP; ATP activation; mean ± S.E., n = 3; read-out: IC50, ANO1 inhibition (YFP fluorescence quenching)
T1 sequence (Q5XXA6 with tags, fused parts or gaps isoform Q5XXA6-5 DEL539-564): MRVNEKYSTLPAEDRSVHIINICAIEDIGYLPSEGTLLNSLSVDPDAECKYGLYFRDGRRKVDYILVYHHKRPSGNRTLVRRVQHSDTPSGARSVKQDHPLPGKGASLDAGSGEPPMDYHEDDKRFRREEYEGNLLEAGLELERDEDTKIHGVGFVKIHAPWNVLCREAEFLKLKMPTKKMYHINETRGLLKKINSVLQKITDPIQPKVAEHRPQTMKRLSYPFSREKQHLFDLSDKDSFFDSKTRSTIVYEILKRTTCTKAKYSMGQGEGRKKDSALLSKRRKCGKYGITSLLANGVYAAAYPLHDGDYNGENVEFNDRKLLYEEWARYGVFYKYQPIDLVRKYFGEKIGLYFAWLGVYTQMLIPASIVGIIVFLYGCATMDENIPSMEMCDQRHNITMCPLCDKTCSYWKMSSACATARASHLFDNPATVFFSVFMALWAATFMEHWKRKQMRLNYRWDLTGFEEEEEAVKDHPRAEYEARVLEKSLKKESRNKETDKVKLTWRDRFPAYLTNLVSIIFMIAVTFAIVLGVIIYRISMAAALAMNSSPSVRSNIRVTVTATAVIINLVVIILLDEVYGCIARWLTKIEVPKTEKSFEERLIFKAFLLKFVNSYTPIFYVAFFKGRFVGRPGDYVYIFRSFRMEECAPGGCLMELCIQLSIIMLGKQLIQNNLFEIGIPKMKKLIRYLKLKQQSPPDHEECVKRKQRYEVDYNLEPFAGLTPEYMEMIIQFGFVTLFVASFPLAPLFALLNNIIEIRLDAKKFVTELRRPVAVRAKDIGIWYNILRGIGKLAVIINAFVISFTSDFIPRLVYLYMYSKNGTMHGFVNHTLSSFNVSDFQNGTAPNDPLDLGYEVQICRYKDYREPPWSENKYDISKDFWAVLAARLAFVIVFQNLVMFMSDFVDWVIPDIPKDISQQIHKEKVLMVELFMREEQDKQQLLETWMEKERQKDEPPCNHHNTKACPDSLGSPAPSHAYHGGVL
Method: Fisher rat thyroid (FRT) cells were stably transfected with human ANO1 (abc) or mouse ANO2 and the halide sensor YFP as described in previous study. FRT cells were cultured in Coon`s modified F12 medium with 10% FBS, 2 mM L-glutamine, 100 units/ml penicillin and 100 μg/ml streptomycin at 37°C and 5% CO2. PC-3 cells were grown in RPMI 1640 medium supplemented with 10% FBS, 100 units/ml penicillin and 100 μg/ml streptomycin at 37°C and 5% CO2. There were populations of PC-3 cells with high and low expression of ANO1. To separate high and low levels of ANO1 expressing PC-3 cells, cells were stably transfected with the halide sensor YFP-H148Q/I152L/F46L and then the cells were plated on 96 well plates at 1 cell per well. After two weeks of incubation, high and low levels of ANO1 expressing PC-3 cells were separated by YFP quenching assay. ANO1 was activated by 100 μM ATP.
ANO1 and YFP expressing FRT cells were plated in 96-well black-walled microplates (Corning Inc., Corning, NY) at a density of 20,000 cells per well. Assays were done using FLUOstar Omega microplate reader (BMG Labtech, Ortenberg, Germany) and MARS Data Analysis Software (BMG Labtech) as described in our previous study. Briefly, each well of 96-well plate was washed 3 times in PBS (200 μL/wash) and test compounds were added to each well at 25 μM final concentration. After 10 minutes incubation at 37°C, 96-well plates were transferred to the plate reader for fluorescence assay. Each well was assayed individually for ANO1-mediated I^- influx by monitoring YFP fluorescence continuously (400 ms per point) for 2 s (baseline), then 140 mM I^- solution containing 200 μM ATP was added at 2 s and then YFP fluorescence was recorded for 6 s. Initial iodide influx rate was determined from the initial slope of fluorescence decrease, by nonlinear regression, following infusion of iodide with ATP.

[2] = tested on: ANO1; settings: read-out: IC50, ANO1 inhibition; cited from earlier work

Row | IC50 [1] [µM] | Molecule | IC50 [2] [nM]
2 | 15.79 ± 0.03 | O=c1cc(-c2ccc(O)cc2)oc2cc(O)cc(O)c12 [Apigenin] | 
3 | 9.66 ± 0.01 | O=c1c(O)c(-c2ccccc2)oc2cc(O)cc(O)c12 [Galangin] | 
4 |  | tannic acid | ~6000
5 |  | CCc1c(C)nc(SCC(=O)Nc2nc(-c3ccc(OC)cc3)cs2)[nH]c1=O [T16Ainh-A01] | ~1000
6 |  | COc1cc(Nc2ccc([N+](=O)[O-])cc2C(=O)O)cc2ccccc12 [MONNA] | ~1000
7 |  | COC1=C(OC)C(=O)C(CCCCCCCCCCO)=C(C)C1=O [idebenone] | ~9000
8 | 15.15 ± 0.1 | O=c1cc(-c2ccccc2)oc2cc(O)cc(O)c12 [Chrysin] | 

Row | Molecule | IC50 [1] [µM] | IC50 [2] [nM]
9 | O=c1cc(-c2ccccc2)oc2cc(O)c(O)c(O)c12 [Baicalein] | 49.6 ± 0.05 | 
